Literature values as cited in publication PMC4278936 (Journal of computer-aided molecular design, 2014).

Target: T1, PfENR (Plasmodium falciparum, UniProt Q9BH77)
T1 sequence (Q9BH77 22-432): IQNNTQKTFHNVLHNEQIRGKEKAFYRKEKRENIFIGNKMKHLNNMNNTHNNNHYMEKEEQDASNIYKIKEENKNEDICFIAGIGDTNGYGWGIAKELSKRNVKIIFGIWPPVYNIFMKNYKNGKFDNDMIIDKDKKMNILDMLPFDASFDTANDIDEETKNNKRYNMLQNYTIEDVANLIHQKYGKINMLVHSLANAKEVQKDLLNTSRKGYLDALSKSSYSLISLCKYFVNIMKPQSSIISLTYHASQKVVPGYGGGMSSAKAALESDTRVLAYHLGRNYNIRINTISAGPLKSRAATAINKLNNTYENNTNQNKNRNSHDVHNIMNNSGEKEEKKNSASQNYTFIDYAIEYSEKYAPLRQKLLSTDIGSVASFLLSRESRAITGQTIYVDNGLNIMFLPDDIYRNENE
Conditions: ref [32], [60]

Structure (SMILES): Oc1cc(Cl)ccc1Oc1ccc(Cl)cc1Cl [compound 1, Triclosan]
- Concentration range in which TCL inhibits PfENR: picomolar to nanomolar range
